{
  "source": "patent US20250283049A1",
  "about": "“AGENT FOR CULTURING ORGANOID IN ABSENCE OF EXTRACELLULAR MATRIX” (KEIO UNIVERSITY, priority 2022, published 2025)",
  "format_in_all_cases": "cell-based",
  "key": {"[1]": {"tested_on": "human small intestine-derived organoid", "assay": "Culture of organoids in presence of Matrigel and LATS kinase inhibitor; cell number by ATP (CellTiter-Glo 3D)", "settings": "presence of Matrigel; 10 mM Lats-IN as printed; 7 days of culture; vs control without Lats-IN", "experimental": "A human small intestine-derived organoid and a human large intestine-derived organoid were cultured in the presence of an inhibitor of LATS1 kinase and LATS2 kinase, Lats-IN-1 (CAS No. 1424635-83-5, hereinafter sometimes referred to as “Lats-IN” and also referred to as “TRULI”), and their dynamics were observed.\nThe human small intestine-derived organoid and the human large intestine-derived organoid used were those established from tissues derived from patients with gastrointestinal tumors who provided informed consent, in accordance with an ethical research plan approved by the Ethics Committee of the Keio University School of Medicine.\nEach organoid was dissociated into single cells using TrypLE Express (Thermo Fisher Scientific Inc.) to obtain a cell suspension. […]\nThe cell proliferation was measured by measuring adenosine triphosphate (ATP) using a commercially available kit (product name “CellTiter-Glo 3D,” Promega Corporation).\nThe upper left panel of FIG. 2 is a photograph of a control (Ctrl) human small intestine-derived organoid cultured in the absence of Lats-IN, and the upper center panel of FIG. 2 is a photograph of a human small intestine-derived organoid cultured in the presence of Lats-IN. […] The vertical axis of the graph represents luminescence intensity (relative value) indicating the amount of ATP present."}, "[2]": {"tested_on": "human small intestine-derived organoids dissociated into single cells", "assay": "Organoid formation from single cells", "text": "Therefore, to examine whether signals from cell-to-cell interactions are involved in cell proliferation mediated by transcriptional regulation of YAP-TEAD by LATS inhibition, human small intestine-derived organoids were dissociated into single cells and then observed organoid formation from the single cells.\nFIG. 9 presents representative photographs showing the results of organoid formation from single cells in the presence or absence of Matrigel (registered trademark) and in the absence or presence of Lats-IN (final concentration: 10 μM). In FIG. 9, the arrowheads indicate cells or organoids. In addition, D1, D4, and D7 indicate the first, fourth, and seventh days, respectively, after the start of culture. […] In addition, the percentage (%) of cells that formed organoids among the seeded single cells is also shown."}, "[3]": {"tested_on": "human large intestine-derived organoids", "assay": "Niche factor removal; organoid proliferation by ATP (CellTiter-Glo 3D)", "settings": "absence of Matrigel; Lats-IN 10 μM; some WRENAIF niche factors removed", "experimental": "(§1) In this experimental example, the relationship between LATS inhibition and the niche factors essential for organoid culture was examined. FIG. 14 presents graphs showing the results of measuring the proliferation of human small intestine-derived organoids and human large intestine-derived organoids cultured under conditions in which all WRENAIF niche factors were added, and under conditions in which some of these niche factors were removed. As a medium to which all of the WRENAIF niche factors were added, the medium whose composition is shown in Table 1 above was used, and as a medium from which some of these niche factors were removed, a medium from which the corresponding niche factors were removed from the medium whose composition is shown in Table 1 above was used. The cell proliferation was measured by measuring ATP using a commercially available kit (product name “CellTiter-Glo 3D,” Promega Corporation). The vertical axis of the graph represents luminescence intensity (relative value) indicating the amount of ATP present.\n(§2) In addition, on the horizontal axis, added niche factors are shown in black, and niche factors not added are shown in light color."}, "[4]": {"tested_on": "human small intestine-derived organoids", "assay": "Niche factor removal; organoid proliferation by ATP (CellTiter-Glo 3D)", "settings": "absence of Matrigel; Lats-IN 10 μM; some WRENAIF niche factors removed", "experimental": "as §1, §2"}, "[5]": {"tested_on": "human small intestine-derived organoids", "assay": "Niche factor removal; continuous passaging P0 to P16 in absence of Matrigel", "settings": "Lats-IN 10 μM", "experimental": "FIG. 15 is a graph showing the results of measuring the proliferation of human small intestine-derived organoids cultured in the absence of Matrigel (registered trademark), in the absence or presence of Lats-IN (final concentration: 10 μM), under conditions in which all WRENAIF niche factors were added, and under conditions in which some of these niche factors were removed. In FIG. 15, P0 to P16 indicate passage numbers 0 to 16. In addition, the dark colors in the graph indicate successful passaging, while the light colors indicate unsuccessful passaging."}},
  "data": [
    {"smiles": "O=C(N=c1sccn1Cc1ccccc1)c1c[nH]c2ncccc12", "note": "[Lats-IN]", "values": [
      {"measurement": "cell proliferation (cell number per well, ATP luminescence)", "setting": "[1]", "value": "significantly activated"},
      {"measurement": "organoid formation from single cells", "setting": "[2]; absence of Matrigel, presence of Lats-IN 10 μM, up to day 7", "value": "proliferated from single cells and formed organoids"},
      {"measurement": "percentage of cells that formed organoids", "setting": "[2]; presence of Matrigel and Lats-IN compared with absence of Matrigel and presence of Lats-IN", "value": "higher"},
      {"measurement": "cell proliferation without one or two niche factors", "setting": "[3]", "value": "cells proliferated"},
      {"measurement": "cell proliferation without one or two niche factors", "setting": "[4]", "value": "cells proliferated"},
      {"measurement": "continuous passaging in medium lacking any of the WRENAIF niche factors", "setting": "[5]", "value": "continuous passaging was not possible"}
    ]}
  ]
}
